Measurements: patent US11969459B2, “Therapeutic agent for cardiomyopathy, old myocardial infarction and chronic heart failure” (StemRIM Inc., priority 2017, dated 2024)

Legend:
[1] = system: old myocardial infarction model rats; test: Efficacy evaluation in old myocardial infarction model rats (Example 3); assay type: in vivo, SD rats
Description: SD rats (7-week-old, male, body weight of approximately 250 g) were anesthetized with the inhalation anesthetic sevofrane (or isoflurane) and intubated endotracheally after adequate suppression was achieved, and deep anesthesia was maintained with the inhalation anesthetic. A thoracotomy was performed in the supine position at the left fourth intercostal space, and the proximal portion of the left anterior descending coronary artery was ligated with 6-0 prolene sutures to create a broad-area myocardial infarction model. The cardiac function was evaluated by echocardiography 2 weeks after the infarction was made, and cases in which extensive infarction was obtained (LVEF<50%) were used as old myocardial infarction model rats (17 animals in total). Similar to the above examples, the HMGB1 peptide (1-44) consisting of SEQ ID NO: 1 was used.
The old myocardial infarction model rats were divided into the HMGB1 peptide (1-44)-treated group (n=9) and the PBS-treated group (control, n=8), and treatment was begun 2 weeks after the infarction was made. Administration of the test substance was carried out by injecting a solution of the HMGB1 peptide (1-44), which has been adjusted to a concentration of 1 mg/ml with PBS as vehicle, into the femoral veins at a dose of 3 ml/kg (3 mg/kg as the peptide dosage) once daily for four consecutive days. In the control group, PBS was injected at a dose of 3 ml/kg once a day via the femoral vein for four consecutive days. At 4 weeks after dosing, the heart was removed by re-thoracotomy under deep anesthesia. […] Both groups were comparatively studied using cardiac physiological, histopathological, and molecular biological techniques to evaluate the effects of administering the HMGB1 peptide (1-44). The condition after 2 weeks (14 days) or more have passed following the onset of myocardial infarction in model rats is equivalent to the condition after 30 days or more have passed following the onset of myocardial infarction in humans.
(§1) Echocardiography was performed at 1, 2, and 4 weeks after dosing, and the left ventricular end-diastolic diameter (LVDd), left ventricular end-systolic diameter (LVDs), and left ventricular ejection fraction (LVEF) were measured and calculated to perform a cardiac function assessment.
Myocardial tissue sections were stained with Sirius red, and the proportion of stain-positive area in the total area of the left ventricular myocardium was calculated as the percentage of fibrosis (%).
Von-Willebrand factors were stained at the infarct border to determine the number of blood vessels (number of vascular endothelial cells). This measurement was performed in 10 different fields and the mean value was calculated.
Periodic Acid Schiff (PAS) staining was performed at the infarct border, and the short diameter of cardiomyocytes retaining a nuclear architecture at the infarct border was measured, and the average of the measurements was obtained. This measurement was performed in 10 different fields and the mean value was calculated.
Staining of the nuclei was performed using DAPI.

[2] = system: Dahl salt-sensitive rats (DIS/Eis rats); test: Efficacy evaluation in hypertensive cardiomyopathy model (Example 4); assay type: in vivo, rat; settings: High-1-44 vs High-PBS group
Excerpt: The Dahl salt-sensitive rats (hereafter also referred to as DIS/Eis rats) were used in the experiments. DIS/Eis rats are hypertensive when fed with a high-salt diet and are a model that develop heart failure at a high incidence (e.g., when fed with a diet supplemented with 8% NaCl from 6 weeks of age, blood pressure reaches 250 mm Hg at 9 weeks of age, death begin to appear from 12 weeks of age, and death is highly probable by 16 weeks of age).
Ten DIS/Eis rats (6-weeks-old, male, body weight about 200 g, Japan SLC) were prepared and divided into two groups, a high-salinity diet group (n=7) and a low-salinity diet group (n=3), and feeding was continued until 15 weeks of age in which the former was fed with a diet supplemented with 8% NaCl and the latter was fed with a diet supplemented with 0.3% NaCl. Aside from the meals, nothing interfered with free movement and they were kept clean and rested without restriction on drinking water, feeding, and such in their cages.
At 11 weeks of age, the high-salinity diet group (n=7) was divided into the HMGB1 peptide (1-44)-treated group (n=3) and the control group (n=4), and treatment was initiated. Administration of the test substance was carried out by injecting a solution of the HMGB1 peptide (1-44), which has been adjusted to a concentration of 1 mg/ml with PBS as the vehicle, into the tail vein at a dose of 3 ml/kg (3 mg/kg as the peptide dosage) once daily for four consecutive days. The control group was injected with PBS at a dose of 3 ml/kg once a day via the tail vein for four consecutive days. Similar to the control group, the low-salinity diet group (n=3) also received PBS via the tail vein for four consecutive days. At 4 weeks after dosing (at 15 weeks, of age), hearts were removed from the rats by thoracotomy under general anesthesia, and their weight was measured, and then histological sections of the left ventricular myocardial cross sections were prepared at the papillary muscle level and subjected to histological analysis. In the following description, the HMGB1 peptide (1-44) administration group fed with a high-salinity diet is abbreviated as the “High-1-44 group”; the control group fed with a high-salinity diet is abbreviated as the “High-PBS group” and the low-salinity diet group is abbreviated as the “Low-PBS group”.
At 15 weeks of age, hearts were removed from rats in each group and weighed. […]
Myocardial tissue sections were stained with Sirius red, and the proportion of stain-positive area in the area of the whole heart or the left ventricle was calculated as the percentage of fibrosis (%).

[3] = system: J2N-k hamsters; test: Efficacy evaluation in dilated cardiomyopathy model (Example 1); assay type: in vivo, hamster
Excerpt: J2N-k hamsters (18-week-old, male, 20 animals in total), which are model animals of dilated cardiomyopathy, were obtained from Japan SLC, acclimated for 2 weeks, and then used for experiments. J2N-k hamsters spontaneously develop dilated cardiomyopathy due to deletion mutations in the […] gene (specifically, cardiomyocyte shedding and fibrosis begin around 5 weeks of age, cardiomegaly and cardiac dysfunction appear at approximately 20 weeks of age, and eventually they die of congestive heart failure at approximately 1 year. J Biochem. 2003 August; 134(2):269-76). Also, a peptide consisting of amino acid residues 1-44 (SEQ ID NO: 1) of the human HMGB1 protein was chemically synthesized by a solid-phase method. Hereinafter, the peptide is referred to as the HMGB1 peptide (1-44), and is abbreviated as “1-44” in the drawing corresponding to the Examples.
J2N-k hamsters were divided into the HMGB1 peptide (1-44)-treated (n=10) and PBS-treated (control, n=10) groups, and treatment was begun at 20 weeks of age (body weight about 120 g). Administration of the test substance was carried out by injecting a solution of the HMGB1 peptide (1-44), which has been adjusted to a concentration of 1 mg/ml with PBS as the vehicle, into the external jugular vein at a dose of 3 ml/kg (3 mg/kg as the peptide dosage) once a day for four consecutive days. In the control group, PBS was injected into the external jugular vein at a dose of 3 ml/kg once a day for four consecutive days. At 6 weeks after administration, a thoracotomy was performed under deep anesthesia, and the heart was removed. The mid portion of the heart was divided for cryopreservation and for paraffin fixation, and a histopathological examination was performed. Molecular biological studies were also performed using apical myocardium to evaluate effects of administration of the HMGB1 peptide (1-44).
as §1, with “performed prior to dosing, and” for “performed”, “4” for “1, 2,”, “6” for “4”, “dosing;” for “dosing,”, “and” for “and the”, “assessment. […]” for “assessment.”
Periodic Acid Schiff (PAS) staining of the myocardial tissue sections was performed to measure the short diameter of cardiomyocytes retaining a nuclear architecture, and the average of the measurements was obtained. This measurement was performed in five different fields and the mean value was calculated.
Immunostaining of the myocardial tissue sections was performed using antibodies against PDGFRα and CD29, which are surface markers of mesenchymal stem cells, to assess whether accumulation of mesenchymal stem cells was observed. Staining of the nuclei was performed using DAPI. […]
The structure of cardiomyocytes was observed by electron microscopy. Specifically, the full-thickness myocardium of the mid-portion was sampled, and subjected to pre-fixation with ½ Karnofsky, post-fixation with 2% osmium tetroxide, block-staining with 0.5% uranium acetate aqueous solution and dehydration with ethanol, and then embedded and polymerized by infiltrating epoxy resin (Queto1812). Ultrathin sections (70-110 nm) were made, and electron staining with uranium acetate and a lead stain solution was performed, and then observed by electron microscopy (H-7500, Hitachi High Technologies).

[4] = system: J2N-k hamsters; test: Efficacy evaluation in dilated cardiomyopathy model, long-term observations (Example 2); assay type: in vivo, hamster; settings: vs PBS group
Description: As in Example 1, twenty J2N-k hamsters were prepared and divided into the HMGB1 peptide (1-44)-treated group (n=11) and the PBS-treated group (control, n=9), and treatment was begun at 20 weeks of age. Administration of the test substance was carried out by injecting a solution of the HMGB1 peptide (1-44), which has been adjusted to a concentration of 1 mg/ml with PBS as the vehicle, into the external jugular vein at a dose of 3 ml/kg (3 mg/kg as the peptide dosage) once daily for four consecutive days. In the control group, PBS was injected into the external jugular vein at a dose of 3 ml/kg once a day for four consecutive days. Evaluation of the cardiac function and survival rate was continued thereafter while rearing the hamsters under normal conditions.
Echocardiography was performed prior to dosing, at 4 weeks after dosing, and every 2 weeks thereafter to measure LVEF.
After the last dose, the animals were kept under normal conditions and the survival rate was evaluated.

[5] = 4 weeks after dosing, vs PBS group
[6] = immunostaining of myocardial tissue
[7] = infarct border, vs PBS group, P=0.05
[8] = 4 and 6 weeks after dosing, 3 mg/kg i.v. x4 days, vs PBS group
[9] = apical myocardium, vs PBS group

HMGB1 peptide (1-44): peptide consisting of amino acid residues 1-44 (SEQ ID NO: 1) of the human HMGB1 protein, chemically synthesized by a solid-phase method (MGKGDPKKPRGKMSSYAFFVQTCREEHKKKHPDASVNFSEFSKK)
left ventricular ejection fraction (LVEF) ([1]; 4 weeks after dosing, 3 mg/kg femoral vein once daily for four days, begun 2 weeks after infarction, vs PBS group): significantly higher
left ventricular end-diastolic diameter (LVDd) [1, 5]: smaller values
left ventricular end-systolic diameter (LVDs) [1, 5]: smaller values
recruitment of cells positive for both PDGFRα and CD90 near the infarct border [1, 6]: recruited
recruitment of cells positive for both PDGFRα and CD105 near the infarct border [1, 6]: recruited
PDGFRα-positive and CD90-positive cells in the vicinity of the infarct border ([1]; immunostaining, vs PBS group): more
number of vessels at the infarct border (von-Willebrand factor staining) [1, 7]: significantly more vessels
short diameter of cardiomyocytes at the infarct border (PAS staining) [1, 7]: significantly smaller
percentage of Sirius red stain-positive area (myocardial fibrosis) ([1]; left ventricular myocardium, 4 weeks after dosing, vs PBS group): significantly smaller
average improvement in LVEF with respect to before the dosing ([1]; up to 4 weeks after dosing): about 7%
end-diastolic left ventricular anterior wall thickness (LVAWd) ([2]; 15 weeks of age): smaller
heart weight ([2]; 15 weeks of age, high-salinity diet, 3 mg/kg tail vein once daily for four days from 11 weeks of age): smaller heart weights
percentage of fibrosis in the left ventricle ([2]; left ventricle): smaller
percentage of Sirius red-stained positive area (percentage of fibrosis) in the whole heart ([2]; whole heart): smaller
left ventricular end-diastolic diameter (LVDd) [3, 8]: no significant differences
left ventricular end-systolic diameter (LVDs) [3, 8]: no significant differences
TSG-6 expression level (RT-PCR) [3, 9]: significantly higher
VEGF expression level (RT-PCR) [3, 9]: significantly higher
short diameter of cardiomyocytes (PAS staining) ([3]; both subendocardial layer and mid layer, 6 weeks after administration, vs PBS group): significantly smaller
left ventricular ejection fraction (LVEF) ([3]; echocardiography 4 and 6 weeks after dosing, 3 mg/kg external jugular vein once a day for four days, compared with PBS group): significantly higher
recruitment of cells positive for both PDGFRα and CD29 to the myocardial tissue ([3]; immunostaining of myocardial tissue sections): recruited
number of PDGFRα-positive and CD29-positive cells in the myocardial tissue ([3]; immunostaining, vs PBS group): significantly more
mitochondrial cristae structure of cardiomyocytes (electron microscopy) ([3]; loss of cristae structure in PBS group): cristae structure was maintained
number of blood vessels (anti-CD31 immunostaining), mid layer ([3]; mid layer, 6 weeks after administration, vs PBS group): significantly higher
percentage of Sirius red stain-positive area (myocardial fibrosis) ([3]; myocardial tissue sections 6 weeks after administration, vs PBS group): significantly smaller
number of blood vessels (anti-CD31 immunostaining), subendocardial layer ([3]; subendocardial layer, 6 weeks after administration, vs PBS group): tended to be higher
survival rate (viability) ([4]; long-term observations): tendency toward higher viability
LVEF, long-term ([4]; until 6 weeks after administration, 3 mg/kg i.v. x4 days): remained significantly higher
